Assay results from ChEMBL document CHEMBL4334440, “Osteoclastogenesis Regulation Metabolites from the Coral-Associated Fungus Pseudallescheria boydii TW-1024-3” (J Nat Prod, 2019).
Activity calls are given as the source filed them. The rule behind the calls is not given here.

Key:
BMDM [1] = assay: Cytotoxicity against C57BL/6J mouse Bone marrow macrophage cells assessed as reduction in cell viability at < 10 uM after 48 hrs by CCK-8 assay; format: cell-based
BMDM [2] = assay: Effect on RANKL/M-CSF-induced osteoclastogenesis in C57BL/6J mouse Bone marrow macrophage cells assessed as increase in area of osteoclasts at 0.1 uM compound for every 2 days and measured after 7 days by TRAP staining based light microscopic method; format: functional, cell-based
BMDM [3] = assay: Effect on RANKL/M-CSF-induced osteoclastogenesis in C57BL/6J mouse Bone marrow macrophage cells assessed as increase in number of osteoclasts at 0.1 to 1 uM compound for every 2 days and measured after 7 days by TRAP staining based light microscopic method; format: functional, cell-based
BMDM [4] = assay: Effect on RANKL/M-CSF-induced osteoclastogenesis in C57BL/6J mouse Bone marrow macrophage cells assessed as increase in number of osteoclasts at 0.1 uM compound for every 2 days and measured after 7 days by TRAP staining based light microscopic method; format: functional, cell-based
BMDM [5] = assay: Effect on RANKL/M-CSF-induced osteoclastogenesis in C57BL/6J mouse Bone marrow macrophage cells assessed as increase in number of osteoclasts at 1 uM compound for every 2 days and measured after 7 days by TRAP staining based light microscopic method; format: functional, cell-based
BMDM [6] = assay: Inhibition of RANKL/M-CSF-induced osteoclastogenesis in C57BL/6J mouse Bone marrow macrophage cells assessed as decrease in number of osteoclasts at 0.1 to 1 uM compound for every 2 days and measured after 7 days by TRAP staining based light microscopic method; format: functional, cell-based
BMDM [7] = assay: Inhibition of RANKL/M-CSF-induced osteoclastogenesis in C57BL/6J mouse Bone marrow macrophage cells assessed as decrease in area of osteoclasts at 0.1 to 1 uM compound for every 2 days and measured after 7 days by TRAP staining based light microscopic method; format: functional, cell-based

Structure (SMILES)	Activity (BMDM [1])	also measured
C=C1CC[C@@]2(O)C[C@@H]1[C@](C)(O)C(=O)[C@H]2C=C(C)C	Non-Toxic	
C=C1CC[C@@]2(O)C[C@@H]1[C@@](C)(O)C(=O)[C@H]2C=C(C)C	Non-Toxic	Activity (BMDM [2]): Active; Activity (BMDM [3]): Active
CO[C@@H]1C(=O)CC[C@]2(O)C[S+]([O-])[C@@H](CC=C(C)C)[C@](C)(O)[C@@]12O (some centres undefined)	Non-Toxic	
CC/C=C\[C@H](O)[C@H](O)C1=C(C)C(=O)[C@]2(O1)C(=O)N[C@@](OC)(C(=O)c1ccccc1)[C@@H]2O [PSEUROTIN A]	Non-Toxic	Activity (BMDM [4]): Active
CC[C@@H]1O[C@]2(C[C@H](O)C1(C)C)OC(=O)C[C@@H]2NC(C)=O	Non-Toxic	
CO[C@@H]1C(=O)CC[C@]2(O)CO[C@@H](CC=C(C)C)[C@](C)(O)[C@@]12O	Non-Toxic	Activity (BMDM [2]): Active; Activity (BMDM [3]): Active
C=C1CCC2(O)CC1C2(C)[C@H](O)CC=C(C)C (some centres undefined)	Non-Toxic	
CO[C@@H]1C(=O)CC[C@]2(CO2)[C@@]1(O)[C@@]1(C)O[C@@H]1CC=C(C)C [OVALICIN]	Non-Toxic	
CO[C@@H]1[C@H](O)CC[C@]2(O)C[S+]([O-])[C@@H](CC=C(C)C)[C@](C)(O)[C@@]12O (some centres undefined)	Non-Toxic	
CC(C)=CC[C@H]1O[C@]1(C)[C@]1(CO)OC(=O)CC[C@]1(O)CCl	Non-Toxic	Activity (BMDM [5]): Active
CO[C@@H]1C(=O)CC[C@](O)(CCl)[C@@]1(O)[C@@]1(C)O[C@@H]1CC=C(C)C	Non-Toxic	inhibition (BMDM [6]): Active; inhibition (BMDM [7]): Active
